Measured values reported in patent publication US20190358242A1, “COMPOSITIONS, KITS, AND METHODS TO INDUCE ACQUIRED CYTORESISTANCE USING STRESS PROTEIN INDUCERS” (FRED HUTCHINSON CANCER RESEARCH CENTER, priority 2017, published 2019).

Experiments:
[1] = tested on: haptoglobin protein; assay: Cardiac haptoglobin protein (ELISA); assay type: in vivo, CD-1 mice
Protocol: (§1) Thirty-two mice were divided into 4 equal groups: (1) control mice; (2) mice treated with 1 mg of N-Mgb injection (as a bolus through the tail vein); (3) mice treated with […] of SnPP (via tail vein); and (4) mice treated with combined N-Mgb 1 SnPP. After either 4 hours (n=16) or 18 hours (n=16), the mice were deeply anesthetized with pentobarbital (50 mg/kg), the abdomen was opened through a midline abdominal incision, and the kidneys were removed. To determine potential effects on extrarenal organs, a liver lobe and the heart were also removed. The tissues were iced and then extracted for protein and RNA (RNeasy Plus Mini; Qiagen, Valencia, Calif.) and subjected to enzyme linked immunosorbent assay (ELISA) and reverse transcriptase polymerase chain reaction (RT-PCR) for HO-1, haptoglobin, and IL-10 protein and messenger RNAs (mRNAs). Zager et al. J Am Soc Nephrol 2014; 25:998-1012; Zager et al. Am J Physiol 2012; 303:F139-48. As an assessment of renal function, control mice and the 18 hour after N-Mgb+SnPP-treated mice had blood urea nitrogen (BUN) and plasma creatinine levels measured. Additionally, transverse 10% formalin fixed kidney sections ([…]) were cut and stained with hematoxylin and eosin (H&E) and periodic acid Schiff (PAS) to further assess potential injury.

[2] = tested on: HO-1 mRNA; assay: Liver HO-1 mRNA (RT-PCR); assay type: in vivo, CD-1 mice
Protocol: as §1

[3] = tested on: haptoglobin protein; assay: Kidney haptoglobin protein (ELISA); assay type: in vivo, CD-1 mice
Protocol: as §1

[4] = tested on: ferritin heavy chain; assay: Kidney ferritin heavy chain expression (Western blotting); assay type: in vivo, mice; details: 18 hrs following 1 umole SnPP, 1 mg FeS or combined
Protocol: FIG. 32. Ferritin heavy chain expression (as determined by Western blotting) in kidneys 18 hrs following 1 umole tin protoporphyrin (SnPP), 1 mg Fe sucrose (FeS) or combined SnPP+FeS treatment.

[5] = set-up: species or system mice; details: mouse, in vivo, iv
[6] = tested on: maleate model of AKI; assay: Maleate model of AKI (800 mg/Kg), FeS/SnPP and FeS/B12; assay type: in vivo, CD-1 mice; details: IV 18 hrs before 800 mg/Kg maleate; 18 hrs post maleate; 1 mg FeS, 1 μmole SnPP or B12
From the text: Effects of Fe sucrose (FeS)/tin protoporphyrin (SnPP) on AKI severity. Maleate model of AKI. When injected into rodents, maleate undergoes relatively selective proximal tubule cell uptake via organic anion transporters. Once intracellular accumulation occurs, maleate is a preferred substrate for succinyl-CoA:3-oxoacid CoA transferase. […] Ample levels of CoA are essential for fatty acid “activation”, allowing for their subsequent metabolism through the Krebs cycle, yielding ATP. In the absence of this process, proximal tubule ATP depletion and cell injury result. Additionally, maleate conjugates the sulfhydryl group of glutathione (GSH), culminating in GSH depletion and potential oxidant tubular stress.
The following experiment tested whether FeS, SnPP or combined FeS+SnPP can mitigate this form of acute kidney injury (AKI). Twenty seven mice were subjected to 200 μL IV tail injections of one of the following: 1) vehicle (phosphate buffered saline, PBS; n, 10); 2) 1 mg FeS (American Regent (Shirley, N.Y.; n, 3); 3) 1 μmole SnPP (Frontier Scientific, Logan, Utah; n 7), or FeS+SnPP, n, 7). […] The severity of kidney injury was assessed by determining plasma blood urea nitrogen (BUN) and plasma creatinine (PCr) concentrations.
Maleate model of AKI. […] The severity of AKI was determined 18 hrs post maleate injection by terminal BUN and PCr assessments.

[7] = tested on: haptoglobin mRNA; assay: Liver haptoglobin mRNA (RT-PCR); assay type: in vivo, CD-1 mice
Protocol: as §1

[8] = tested on: HO-1 mRNA; assay: Kidney HO-1 mRNA (RT-PCR); assay type: in vivo, CD-1 mice
Protocol: as §1

[9] = tested on: HO-1 mRNA; assay: SnPP vs. SnMeP: renal cortical HO-1 mRNA induction (RT-PCR); assay type: in vivo, mice; details: 1 umole, 4 hrs post injection, n 3
From the text: FIG. 28. Comparison of SnPP vs. SnMeP effects on renal cortical HO-1 and haptoglobin mRNA induction 4 hrs post agent injection. Mice received either 1 umole tin protoporphyrin (SnPP), tin mesoporphyrin (SnMeP), or vehicle (n, 3 each) and 4 hrs renal cortical RNA was extracted and subjected to RT-PCR.

[10] = tested on: HO-1 mRNA; assay: Cardiac HO-1 mRNA (RT-PCR); assay type: in vivo, CD-1 mice
Protocol: as §1

[11] = tested on: IL-10 mRNA; assay: Liver IL-10 mRNA (RT-PCR); assay type: in vivo, CD-1 mice
Protocol: as §1

[12] = Berglund 1988; Kappas 1988; Reddy 2003; cited from earlier work
[13] = tested on: HO-1 protein; assay: Kidney HO-1 protein (ELISA); assay type: in vivo, CD-1 mice
Protocol: as §1

[14] = tested on: HO-1 protein; assay: Cardiac HO-1 protein (ELISA); assay type: in vivo, CD-1 mice; details: 18 h after IV injection
Protocol: as §1

[15] = tested on: IL-10 mRNA; assay: Kidney IL-10 mRNA (RT-PCR); assay type: in vivo, CD-1 mice
Protocol: as §1

[16] = tested on: haptoglobin mRNA; assay: Cardiac haptoglobin mRNA (RT-PCR); assay type: in vivo, CD-1 mice
Protocol: as §1

[17] = tested on: Mgb-exposed cultured proximal tubule (HK-2) cells; details: Zager & Burkhart, Kidney Int 1997; cited from earlier work
[18] = tested on: haptoglobin protein; assay: Liver haptoglobin protein (ELISA); assay type: in vivo, CD-1 mice; set-up: unit not given beside the values
Protocol: as §1

[19] = 4 h after IV injection, N-Mgb 1 mg, SnPP 1 mmol [sic]

## C=Cc1c2[n-]c(c1C)/C=c1\[n-]/c(c(C)c1C=C)=C\c1[n-]c(c(CCC(=O)O)c1C)/C=c1\[n-]c(c(C)c1CCC(=O)O)=C2.[Sn+4] [SnPP, tin protoporphyrin]
[1]; 4 h after IV injection
  Cardiac protein Haptoglobin: 19.1 ± 2.1
[1]; 18 h after IV injection
  Cardiac protein Haptoglobin: 96.1 ± 36.2
[2]; 4 h after IV injection
  Liver mRNA HO-1: 3.15 ± 0.25
[2]; 18 h after IV injection
  Liver mRNA HO-1: 2.56 ± 0.21
[3]; [19]
  Kidney Haptoglobin protein: 13.1 ± 1.3
[3]; 18 h after IV injection
  Kidney protein Haptoglobin: 53.5 ± 17.2
[4]
  Ferritin heavy chain protein levels in kidney: weak effect
[5]
  Plasma LDH, Average: 4.51 Absorbance U LDH/ml
[6]
  Severity of maleate-induced AKI (BUN/PCr), in words: Neither SnPP alone nor FeS alone significantly altered the severity of renal injury
[7]; 4 h after IV injection
  Liver mRNA Haptoglobin: 0.32 ± 0.02
[7]; 18 h after IV injection
  Liver mRNA Haptoglobin: 0.65 ± 0.17
[8]; [19]
  Kidney mRNA HO-1: 4.38 ± 0.28
[8]; 4 hour, agent alone
  Renal HO-1 mRNA increase, in words: only modest increases
[8]; 18 h after IV injection
  Kidney mRNA cortex HO-1: 0.63 ± 0.06
[9]
  Renal cortical HO-1 mRNA induction: raised
[10]; 4 h after IV injection
  Cardiac mRNA HO-1: 0.14 ± 0.01
[10]; 18 h after IV injection
  Cardiac mRNA HO-1: 0.09 ± 0.03
[11]; 4 h after IV injection
  Liver mRNA IL-10: 0.14 ± 0.1
[11]; 18 h after IV injection
  Liver mRNA IL-10: 0.05 ± 0.01
[12]
  Tolerability in humans: well tolerated in humans
[13]; 18-hour time point, agent alone
  Renal HO-1 protein increase, in words: only relatively small HO-1 protein increases
[13]; [19]
  Kidney HO-1 protein: 22.9 ± 2.6
[13]; 18 h after IV injection
  Kidney protein HO-1: 18 ± 2
[14]
  Cardiac protein HO-1: 2.67 ± 0.4
[15]; 4-hour time point, agent alone
  Impact on renal IL-10 mRNA levels, in words: either minimal or no impact
[15]; [19]
  Kidney mRNA IL-10: 0.39 ± 0.15
[15]; 18 h after IV injection
  Kidney mRNA cortex IL-10: 0.18 ± 0.09
[16]; 4 h after IV injection
  Cardiac mRNA Haptoglobin: 0.52 ± 0.21
[16]; 18 h after IV injection
  Cardiac mRNA Haptoglobin: 0.59 ± 0.17
[17]
  Reduction of Mgb toxicity: ≤ 85%
[18]; 4 h after IV injection
  Liver protein Haptoglobin: 130.0 ± 8.9
[18]; 18 h after IV injection
  Liver protein Haptoglobin: 212.0 ± 63.6
